Data on 13 compounds can be found in patent publication US20240398805A1, “QUINAZOLINE DERIVED COMPOUNDS AS EGFR INHIBITORS AND THEIR USES THEREOF” (ACCUTAR BIOTECHNOLOGY INC., priority 2021, published 2024).

Assay type in all cases: cell-based
The subject of assay [1] is HCC827-SVD cells (human EGFR exon 20 insertion mutant D770_N771 insSVD). Briefly: Cell growth inhibition (CellTiter-Glo, 3 days) in HCC827-SVD. The note with it: 72 h, 3 days after administration. Put shortly: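 HCC827 cells carrying lentiviral codon-optimized EGFR D770_N771 insSVD, with endogenous EGFR knocked out by CRISPR (single clone), seeded at 5000 cells/well in RPMI with 10% FBS. Viability read by CellTiter-Glo luminescence.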

The subject of a further assay is HCC827 cells. In words: Cell growth inhibition (CellTiter-Glo, 3 days) in HCC827. The note with it: Homo sapiens, 72 h, 3 days after administration. Put shortly: (§1)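 HCC827 cells in RPMI/10% FBS and A431 cells in DMEM/10% FBS were seeded at 5000 cells/well and left overnight. Compound was then added over a concentration range for 3 days of incubation, and viability was read by CellTiter-Glo luminescence.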
For orientation: Cellular ATP, detected with luciferase, serves as a proxy for viable cell number.

Assay [2] has as its system HCC827-ASV cells (human EGFR exon 20 insertion mutant A769_D770insASV). In words: Cell growth inhibition (CellTiter-Glo, 3 days) in HCC827-ASV. The note with it: 72 h, 3 days after administration. Put shortly:
(§2)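 Growth inhibition used a CellTiter-Glo luminescence read-out after 3 days of compound exposure at various concentrations. Cells were plated the day before at 5000/well in RPMI plus 10% FBS. The lines are HCC827 transduced by lentivirus with codon-optimized EGFR ASV or ERBB2 YVMA exon 20 insertions.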

The test system of the next assay is A431 cells. In words: Cell growth inhibition (CellTiter-Glo, 3 days) in A431. To be noted: Homo sapiens, A-431, 72 h, 3 days after administration. Summed up:
as §1

For assay [3], the system named is HCC827-YVMA cells (human ERBB2 exon20 insertion mutant A775_G776ins YVMA). Briefly: Cell growth inhibition (CellTiter-Glo, 3 days) in HCC827-YVMA. To be noted: 72 h, 3 days after administration. Summed up:
as §2

The term GI50 denotes the concentration that inhibits growth by half. Low readings indicate greater sensitivity of the cells, high ones lower sensitivity of the cells. Regarding `C=CC(=O)N1CCC(Nc2cc3c(Nc4ccc(Oc5ccnc(N6CCCC(C#N)C6)c5)cc4F)ncnc3cc2OC)CC1` (centres unmarked) [Example 221, 1-(4-(4-((6-((1-acryloylpiperidin-4-yl)amino)-7-methoxyquinazolin-4-yl)amino)-3-fluorophenoxy)pyridin-2-yl)piperidine-3-carbonitrile], the GI50 in assay [1] is less than 30 nM; in the assay with HCC827 cells it was 100 to 300 nM; in assay [2], less than 30 nM; in the assay on A431 cells, 100 to 300 nM; in assay [3], less than 30 nM.

For the compound `C=CC(=O)N1CCC(Nc2cc3c(Nc4ccc(Oc5ccnc(N6CC(C)(O)C6)c5)cc4F)ncnc3cc2OC)CC1` [Example 203, 1-(4-((4-((2-fluoro-4-((2-(3-hydroxy-3-methylazetidin-1-yl)pyridin-4-yl)oxy)phenyl)amino)-7-methoxyquinazolin-6-yl)amino)piperidin-1-yl)prop-2-en-1-one], the 50% growth inhibitory concentration (GI50) in assay [1] was less than 30 nM; in the assay with HCC827 cells, 100 to 300 nM; in assay [2] it was less than 30 nM; in the assay on A431 cells, 100 to 300 nM; in assay [3], less than 30 nM.

Turning to `C=CC(=O)N1CCC(Nc2cc3c(Nc4ccc(Oc5ccnc(N6C[C@@H](OC)[C@H](OC)C6)c5)cc4F)ncnc3cc2OC)CC1` [Example 255, 1-(4-((4-((4-((2-((3R,4R)-3,4-dimethoxypyrrolidin-1-yl)pyridin-4-yl)oxy)-2-fluorophenyl)amino)-7-methoxyquinazolin-6-yl)amino)piperidin-1-yl)prop-2-en-1-one], the 50% growth inhibitory concentration (GI50) in assay [1] is less than 30 nM; in the assay with HCC827 cells it was 300 to 600 nM; in assay [2], less than 30 nM; in the assay on A431 cells it was not below 1000 nM; in assay [3], less than 30 nM.

On to `C=CC(=O)N1CCC(Nc2cc3c(Nc4ccc(Oc5ccnc(N6C[C@@H](C)O[C@@H](C)C6)c5)cc4F)ncnc3cc2OC)CC1` [Compound 101, 1-(4-((4-((4-((2-((2R,6S)-2,6-dimethylmorpholino)pyridin-4-yl)oxy)-2-fluorophenyl)amino)-7-methoxyquinazolin-6-yl)amino)piperidin-1-yl)prop-2-en-1-one], for which the 50% growth inhibitory concentration (GI50) in assay [1] was less than 30 nM; with HCC827 cells, 60 to 100 nM; in assay [2], less than 30 nM; with A431 cells, not below 1000 nM; in assay [3] it was less than 30 nM.

On to `C=CC(=O)N1CCC(Nc2cc3c(Nc4ccc(Oc5ccnc(N6CC(OC(C)C)C6)c5)cc4F)ncnc3cc2OC)CC1` [Example 148, 1-(4-((4-((2-fluoro-4-((2-(3-isopropoxyazetidin-1-yl)pyridin-4-yl)oxy)phenyl)amino)-7-methoxyquinazolin-6-yl)amino)piperidin-1-yl)prop-2-en-1-one], for which the 50% growth inhibitory concentration (GI50) in assay [1] fell in the range of 30 to 60 nM; with HCC827 cells it was 100 to 300 nM; in assay [2] it was 30 to 60 nM; in the assay with A431 cells it was 300 to 600 nM; in assay [3] it was 30 to 60 nM.

As to `C=CC(=O)N1CCC(Nc2cc3c(Nc4ccc(Oc5ccnc(N6CC(COC)C6)c5)cc4F)ncnc3cc2OC)CC1` [Example 142, 1-(4-((4-((2-fluoro-4-((2-(3-(methoxymethyl)azetidin-1-yl)pyridin-4-yl)oxy)phenyl)amino)-7-methoxyquinazolin-6-yl)amino)piperidin-1-yl)prop-2-en-1-one], the 50% growth inhibitory concentration (GI50) in assay [1] was less than 30 nM; with HCC827 cells, 100 to 300 nM; in assay [2], less than 30 nM; in the assay with A431 cells, not below 1000 nM; in assay [3], less than 30 nM.

As for `C=CC(=O)N1CCC(Nc2cc3c(Nc4ccc(Oc5ccnc(N6CCNC(C)(C)C6)c5)cc4F)ncnc3cc2OC)CC1` [Example 226, 1-(4-((4-((4-((2-(3,3-dimethylpiperazin-1-yl)pyridin-4-yl)oxy)-2-fluorophenyl)amino)-7-methoxyquinazolin-6-yl)amino)piperidin-1-yl)prop-2-en-1-one], the GI50 is 300 to 600 nM in assay [1]; not below 1000 nM in the assay on HCC827 cells; not below 1000 nM in assay [2]; not below 1000 nM in the assay on A431 cells; not below 1000 nM in assay [3].

Consider `C=CC(=O)N1CCC(Nc2cc3c(Nc4ccc(Oc5ccnc(-c6ccc(C)nc6)c5)cc4F)ncnc3cc2OC)CC1` [Example 27, 1-(4-((4-((2-fluoro-4-((6′-methyl-[2,3′-bipyridin]-4-yl)oxy)phenyl)amino)-7-methoxyquinazolin-6-yl)amino)piperidin-1-yl)prop-2-en-1-one], for which the GI50 in assay [1] was 60 to 100 nM; with HCC827 cells it was 100 to 300 nM; in assay [2], 30 to 60 nM; in the assay with A431 cells, not below 1000 nM; in assay [3] it was 60 to 100 nM.

`C=CC(=O)N1CCC(Nc2cc3c(Nc4ccc(Oc5ccnc(N(CCOC)CCOC)c5)cc4F)ncnc3cc2OC)CC1` [Example 117, 1-(4-((4-((4-((2-(bis(2-methoxyethyl)amino)pyridin-4-yl)oxy)-2-fluorophenyl)amino)-7-methoxyquinazolin-6-yl)amino)piperidin-1-yl)prop-2-en-1-one]: the concentration for 50% growth inhibition (GI50) in assay [1] was 100 to 300 nM; in the assay on HCC827 cells, 300 to 600 nM; in assay [2], 100 to 300 nM; in the assay with A431 cells, not below 1000 nM; in assay [3] it was 60 to 100 nM.

On to `C=CC(=O)N1CCC(Nc2cc3c(Nc4ccc(OCc5ccc(N6CCOCC6)cn5)cc4F)ncnc3cc2OC)CC1` [Example 107, 1-(4-((4-((2-fluoro-4-((5-morpholinopyridin-2-yl)methoxy)phenyl)amino)-7-methoxyquinazolin-6-yl)amino)piperidin-1-yl)prop-2-en-1-one], for which the GI50 was 600 to 1000 nM in assay [1]; 100 to 300 nM in the assay with HCC827 cells; 300 to 600 nM in assay [2]; 300 to 600 nM in the assay on A431 cells; 300 to 600 nM in assay [3].

`C=CC(=O)N1CCC(Nc2cc3c(Nc4ccc(Oc5ccnc(N6CC[C@@H](C#N)C6)c5)cc4F)ncnc3cc2OC)CC1` [Example 258, (R)-1-(4-(4-((6-((1-acryloylpiperidin-4-yl)amino)-7-methoxyquinazolin-4-yl)amino)-3-fluorophenoxy)pyridin-2-yl)pyrrolidine-3-carbonitrile]: the concentration for 50% growth inhibition (GI50) was less than 30 nM in assay [1]; 60 to 100 nM in the assay with HCC827 cells; less than 30 nM in assay [2]; 600 to 1000 nM with A431 cells; less than 30 nM in assay [3].

In the case of `C=CC(=O)N1CCC(Nc2cc3c(Nc4ccc(Oc5ccnc(N6CCC(OC)C(C)(C)C6)c5)cc4F)ncnc3cc2OC)CC1` (centres unmarked) [Example 159, 1-(4-((4-((2-fluoro-4-((2-(4-methoxy-3,3-dimethylpiperidin-1-yl)pyridin-4-yl)oxy)phenyl)amino)-7-methoxyquinazolin-6-yl)amino)piperidin-1-yl)prop-2-en-1-one], the GI50 was in the range of 30 to 60 nM in assay [1]; 100 to 300 nM with HCC827 cells; 30 to 60 nM in assay [2]; 300 to 600 nM in the assay with A431 cells; 60 to 100 nM in assay [3].

On to `C=CC(=O)N1CCC(Nc2cc3c(Nc4ccc(Oc5ccn(-c6cnc(OC)nc6)n5)c(F)c4)ncnc3cc2OC)CC1` [Example 54, 1-(4-((4-((3-fluoro-4-((1-(2-methoxypyrimidin-5-yl)-1H-pyrazol-3-yl)oxy)phenyl)amino)-7-methoxyquinazolin-6-yl)amino)piperidin-1-yl)prop-2-en-1-one], for which the concentration for 50% growth inhibition (GI50) is less than 30 nM in assay [1]; less than 30 nM with HCC827 cells; less than 30 nM in assay [2]; 100 to 300 nM with A431 cells; less than 30 nM in assay [3].
